Details of test [1]: method as in doi:10.1002/ptr.2650080207. Particulars: cited from earlier work.
Test [2] concerns the target T1, DPP-IV (Homo sapiens, UniProt P27487).
T1 construct: purchased Abnova Co. Ltd. (Taipei, Taiwan) KA1311
Description: In vitro DPP-IV inhibition assay (fluorescence, Abnova kit KA1311). It counts as biochemical. Particulars: for inhibition at 100 µM: compound concentration 100 μM, read-out: inhibition rate; for pIC50: fluorescence detection, 37 °C, 30 min. On the procedure:
A DPP-IV Inhibitor Screening Assay Kit (KA1311) was purchased from Abnova Co. Ltd. (Taipei, Taiwan). […] The in vitro inhibitory activity of each compound against DPP-IV was determined based on a fluorescence detection method. […] Additionally, a “100% initial activity well” (10 μL dimethyl sulfoxide [DMSO], 30 μL DPP assay buffer, and 10 μL DPP-IV) and a “background well” (10 μL DMSO and 40 μL DPP assay buffer) were prepared. Next, 50 μL of DPP was added to each well and incubated at 37 °C for 30 min. A FlexStation 3 multifunctional microplate reader (Molecular Devices, Sunnyvale, CA, USA) was used to detect the fluorescence value (excitation wavelength: 350–360 nm; emission wavelength: 450–465 nm). […] IC50 values were then calculated using GraphPad Prism 5 (GraphPad Software, La Jolla, CA, USA).

Test [3] relates to Cathepsin L. Set-up: method as in PMID 11440138. Particulars: cited from earlier work.
Test [4] deals with c-Jun N-terminal kinase (JNK) and p38 pathways. Set-up: method as in PMID 25448500. Particulars: induced by LPS stimulation; cited from earlier work.
In test [5] the test system is Cathepsin B. Set-up: method as in PMID 11440138. Particulars: cited from earlier work.
In test [6] the test system is arthritis in rats. Also on record: method as in PMID 11440138. Particulars: cited from earlier work.

pIC50: −log10 of the molar value.

T1 sequence (P27487 whole entry): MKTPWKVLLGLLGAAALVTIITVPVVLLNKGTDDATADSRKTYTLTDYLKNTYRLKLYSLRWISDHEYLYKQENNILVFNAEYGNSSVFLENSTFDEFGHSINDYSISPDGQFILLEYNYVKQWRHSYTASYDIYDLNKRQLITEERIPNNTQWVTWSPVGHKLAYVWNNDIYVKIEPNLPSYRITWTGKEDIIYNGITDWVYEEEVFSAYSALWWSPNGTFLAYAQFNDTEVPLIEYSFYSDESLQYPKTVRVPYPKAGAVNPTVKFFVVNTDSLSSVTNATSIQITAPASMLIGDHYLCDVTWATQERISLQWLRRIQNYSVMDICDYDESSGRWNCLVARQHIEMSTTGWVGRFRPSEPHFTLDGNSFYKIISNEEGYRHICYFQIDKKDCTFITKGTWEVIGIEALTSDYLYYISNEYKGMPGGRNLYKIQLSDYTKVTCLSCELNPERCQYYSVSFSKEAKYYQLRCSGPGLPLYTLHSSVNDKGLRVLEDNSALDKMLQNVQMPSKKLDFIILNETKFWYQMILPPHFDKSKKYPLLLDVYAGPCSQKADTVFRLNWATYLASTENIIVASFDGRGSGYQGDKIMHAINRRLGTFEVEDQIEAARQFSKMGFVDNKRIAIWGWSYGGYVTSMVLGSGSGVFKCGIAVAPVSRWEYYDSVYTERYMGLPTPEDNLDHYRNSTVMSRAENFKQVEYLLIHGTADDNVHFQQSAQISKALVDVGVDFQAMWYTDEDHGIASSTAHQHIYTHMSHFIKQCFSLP

Take `CCOC(=O)NCc1ccc(O[C@@H]2O[C@@H](C)[C@H](O)[C@@H](O)[C@H]2O)cc1` [Compound 1, O-Ethyl-4-[(α-L-rhamnosyloxy)benzyl] carbamate]: the hypotensive effect result in test [1] is given as “a certain hypotensive effect”. In test [2], the inhibition at 100 µM turned out to be 71.2% and the negative logarithm of the IC50 (pIC50) was 6.10.
As for `C[C@@H]1O[C@@H](Oc2ccc(CN=C=S)cc2)[C@H](O)[C@H](O)[C@H]1O` [Compound 2, 4-[(α-L-rhamnosyloxy)benzyl] Isothiocyanate], in test [2], the inhibition at 100 µM was found to be 30.9% and the pIC50 was 3.80.
For `CC(=O)OC[C@H](Cc1ccccc1)NC(=O)[C@H](Cc1ccccc1)NC(=O)c1ccccc1` [Compound 3, Aurantiamide acetate], in test [3], the “Cathepsin L inhibition” value is “inhibiting”. Moreover, in test [4], the “inhibition of JNK and p38 pathways” value is on record as “inhibit”. Moreover, the “Cathepsin B inhibition” value in test [5] is listed as “inhibiting”. Also, in test [2], the inhibition at 100 µM stood at 23.5% and the pIC50 was 3.72. In test [6], the effect on arthritis result is “relieves arthritis”.

As usually defined, the inhibition is how much of the control response was suppressed. The pIC50 is the IC50 on a negative log10 scale, so that one unit is a factor of ten. Low values mean a high IC50, high ones a low IC50.

Source of the values: PMC6983023, “Identification of Potential Dipeptidyl Peptidase (DPP)-IV Inhibitors among Moringa oleifera Phytochemicals by Virtual Screening, Molecular Docking Analysis, ADME/T-Based Prediction, and In Vitro Analyses” (Molecules, 2020).
